Assay results published in patent publication US20110039721A1, “METHOD FOR PREDICTION ABOUT CARCINOGENICITY OF SUBSTANCE IN RODENT” (Chemicals Evaluation and Research Institute, priority 2007, published 2011).

Test system: mRNA expressed from the genes (A) to (D) in rat liver
Assay: Behavior of genes (mRNA expression level, oligo-DNA microarray) in rat liver after 28-day oral administration
Format: in vivo
Details: for Behavior of gene caused by administration of chemical substance, Gene No. 4846 / Behavior of gene caused by administration of chemical substance, Gene No. 2026 / Behavior of gene caused by administration of chemical substance, Gene No. 4218 / Behavior of gene caused by administration of chemical substance, Gene No. 6182 / Behavior of gene caused by administration of chemical substance, Gene No. 5600: gene group (A); for Behavior of gene caused by administration of chemical substance, Gene No. 4846: Unigene No. Rn.144554; for Behavior of gene caused by administration of chemical substance, Gene No. 2026 / Behavior of gene caused by administration of chemical substance, Gene No. 4218: Unigene No. Rn.167075; for Behavior of gene caused by administration of chemical substance, Gene No. 6182: Unigene No. Rn.5834; for Behavior of gene caused by administration of chemical substance, Gene No. 5600: Unigene No. Rn.9836; for Behavior of gene caused by administration of chemical substance, Gene No. 1494 / Behavior of gene caused by administration of chemical substance, Gene No. 2045 / Behavior of gene caused by administration of chemical substance, Gene No. 2203: gene group (B); for Behavior of gene caused by administration of chemical substance, Gene No. 1494: Unigene No. Rn.1430; for Behavior of gene caused by administration of chemical substance, Gene No. 2045: Unigene No. Rn.19329; for Behavior of gene caused by administration of chemical substance, Gene No. 2203: Unigene No. Rn.21240; for Behavior of gene caused by administration of chemical substance, Gene No. 533 / Behavior of gene caused by administration of chemical substance, Gene No. 725 / Behavior of gene caused by administration of chemical substance, Gene No. 1163 / Behavior of gene caused by administration of chemical substance, Gene No. 4973 / Behavior of gene caused by administration of chemical substance, Gene No. 4095 / Behavior of gene caused by administration of chemical substance, Gene No. 1334 / Behavior of gene caused by administration of chemical substance, Gene No. 6620 / Behavior of gene caused by administration of chemical substance, Gene No. 6303 / Behavior of gene caused by administration of chemical substance, Gene No. 5878 / Behavior of gene caused by administration of chemical substance, Gene No. 1131 / Behavior of gene caused by administration of chemical substance, Gene No. 1562 / Behavior of gene caused by administration of chemical substance, Gene No. 1741 / Behavior of gene caused by administration of chemical substance, Gene No. 893 / Behavior of gene caused by administration of chemical substance, Gene No. 6026 / Behavior of gene caused by administration of chemical substance, Gene No. 154 / Behavior of gene caused by administration of chemical substance, Gene No. 1993 / Behavior of gene caused by administration of chemical substance, Gene No. 813 / Behavior of gene caused by administration of chemical substance, Gene No. 2494 / Behavior of gene caused by administration of chemical substance, Gene No. 2546 / Behavior of gene caused by administration of chemical substance, Gene No. 3776 / Behavior of gene caused by administration of chemical substance, Gene No. 3929 / Behavior of gene caused by administration of chemical substance, Gene No. 1119 / Behavior of gene caused by administration of chemical substance, Gene No. 6742 / Behavior of gene caused by administration of chemical substance, Gene No. 5634: gene group (C); for Behavior of gene caused by administration of chemical substance, Gene No. 533: Unigene No. Rn.106184; for Behavior of gene caused by administration of chemical substance, Gene No. 725: Unigene No. Rn.108075; for Behavior of gene caused by administration of chemical substance, Gene No. 1163: Unigene No. Rn.11766; for Behavior of gene caused by administration of chemical substance, Gene No. 4973: Unigene No. Rn.118529; for Behavior of gene caused by administration of chemical substance, Gene No. 4095: Unigene No. Rn.119024; for Behavior of gene caused by administration of chemical substance, Gene No. 1334 / Behavior of gene caused by administration of chemical substance, Gene No. 6620: Unigene No. Rn.120914; for Behavior of gene caused by administration of chemical substance, Gene No. 6303: Unigene No. Rn.123063; for Behavior of gene caused by administration of chemical substance, Gene No. 5878: Unigene No. Rn.143213; for Behavior of gene caused by administration of chemical substance, Gene No. 1131: Unigene No. Rn.144946; for Behavior of gene caused by administration of chemical substance, Gene No. 1562: Unigene No. Rn.14744; for Behavior of gene caused by administration of chemical substance, Gene No. 1741: Unigene No. Rn.1647; for Behavior of gene caused by administration of chemical substance, Gene No. 893: Unigene No. Rn.164817; for Behavior of gene caused by administration of chemical substance, Gene No. 6026: Unigene No. Rn.167685; for Behavior of gene caused by administration of chemical substance, Gene No. 154: Unigene No. Rn.185941; for Behavior of gene caused by administration of chemical substance, Gene No. 1993: Unigene No. Rn.18728; for Behavior of gene caused by administration of chemical substance, Gene No. 813: Unigene No. Rn.201760; for Behavior of gene caused by administration of chemical substance, Gene No. 2494: Unigene No. Rn.23969; for Behavior of gene caused by administration of chemical substance, Gene No. 2546: Unigene No. Rn.24561; for Behavior of gene caused by administration of chemical substance, Gene No. 3776: Unigene No. Rn.43232; for Behavior of gene caused by administration of chemical substance, Gene No. 3929: Unigene No. Rn.4620; for Behavior of gene caused by administration of chemical substance, Gene No. 1119: Unigene No. Rn.9757; for Behavior of gene caused by administration of chemical substance, Gene No. 6742: Unigene No. Rn.9779; for Behavior of gene caused by administration of chemical substance, Gene No. 5634: Unigene No. Rn.9862; for Behavior of gene caused by administration of chemical substance, Gene No. 5726: gene group (D), Unigene No. Rn.9939
Protocol: A test solution was prepared by dissolving each of the carcinogens and the non-carcinogens shown in Tables 2 to 6 in the corresponding solvent shown in Tables 2 to 6. Each of the thus prepared test solutions and the solvents used for the preparation was administered by oral gavage to rats in each group. As the rats, male rats (F344 SPF rats) at 5 weeks of age obtained from Charles River Laboratories Japan, Inc. were used. The animals were divided into groups, each containing four individuals. The volume of the solvent administered to the vehicle control group was set to the same volume as that of the test solution administered to the carcinogen administration group or the non-carcinogen administration group. The administration of the test solution or the solvent was performed once daily for 28 days. Apiece was excised from the liver of each of the rats after a lapse of 28 days from the initiation of the administration, and the total RNA was extracted and purified.
The expression level of mRNA was compared between each of the chemical substance administration groups and the corresponding vehicle control group, and genes that satisfy the requirements described in (A) to (D) were selected, respectively.
The case where the expression level of mRNA in the carcinogen administration group or the non-carcinogen administration group is 1.5 times or more or 1/1.5 or less of the expression level of the corresponding mRNA expressed in the control group was determined to be significant. In this connection, the determination as to whether or not the change is significant was performed by taking into consideration the direction of increase or decrease in the expression level. In the case where the direction of increase or decrease is different as compared with the case where another carcinogen was administered, the change was determined to be not significant.

## c1ccc2c(c1)cc1ccc3cccc4ccc2c1c34 [TS063, Benzo[a]pyrene]
mRNA vs vehicle control group
  Behavior of gene caused by administration of chemical substance, Gene No. 4846: −
  Behavior of gene caused by administration of chemical substance, Gene No. 2026: +
  Behavior of gene caused by administration of chemical substance, Gene No. 4218: −
  Behavior of gene caused by administration of chemical substance, Gene No. 6182: +
  Behavior of gene caused by administration of chemical substance, Gene No. 5600: −
  Behavior of gene caused by administration of chemical substance, Gene No. 1494: −
  Behavior of gene caused by administration of chemical substance, Gene No. 2045: +
  Behavior of gene caused by administration of chemical substance, Gene No. 2203: +
  Behavior of gene caused by administration of chemical substance, Gene No. 533: −
  Behavior of gene caused by administration of chemical substance, Gene No. 725: −
  Behavior of gene caused by administration of chemical substance, Gene No. 1163: −
  Behavior of gene caused by administration of chemical substance, Gene No. 4973: −
  Behavior of gene caused by administration of chemical substance, Gene No. 4095: −
  Behavior of gene caused by administration of chemical substance, Gene No. 1334: −
  Behavior of gene caused by administration of chemical substance, Gene No. 6620: −
  Behavior of gene caused by administration of chemical substance, Gene No. 6303: −
  Behavior of gene caused by administration of chemical substance, Gene No. 5878: −
  Behavior of gene caused by administration of chemical substance, Gene No. 1131: −
  Behavior of gene caused by administration of chemical substance, Gene No. 1562: −
  Behavior of gene caused by administration of chemical substance, Gene No. 1741: −
  Behavior of gene caused by administration of chemical substance, Gene No. 893: −
  Behavior of gene caused by administration of chemical substance, Gene No. 6026: −
  Behavior of gene caused by administration of chemical substance, Gene No. 154: −
  Behavior of gene caused by administration of chemical substance, Gene No. 1993: −
  Behavior of gene caused by administration of chemical substance, Gene No. 813: −
  Behavior of gene caused by administration of chemical substance, Gene No. 2494: −
  Behavior of gene caused by administration of chemical substance, Gene No. 2546: −
  Behavior of gene caused by administration of chemical substance, Gene No. 3776: −
  Behavior of gene caused by administration of chemical substance, Gene No. 3929: −
  Behavior of gene caused by administration of chemical substance, Gene No. 1119: −
  Behavior of gene caused by administration of chemical substance, Gene No. 6742: −
  Behavior of gene caused by administration of chemical substance, Gene No. 5634: +
  Behavior of gene caused by administration of chemical substance, Gene No. 5726: −

## COc1ccc2c(c1)c(CC(=O)O)c(C)n2C(=O)c1ccc(Cl)cc1 [TS085, Indomethacin]
  Behavior of gene caused by administration of chemical substance, Gene No. 4846: −
  Behavior of gene caused by administration of chemical substance, Gene No. 2026: −
  Behavior of gene caused by administration of chemical substance, Gene No. 4218: −
  Behavior of gene caused by administration of chemical substance, Gene No. 6182: −
  Behavior of gene caused by administration of chemical substance, Gene No. 5600: −
  Behavior of gene caused by administration of chemical substance, Gene No. 1494: −
  Behavior of gene caused by administration of chemical substance, Gene No. 2045: −
  Behavior of gene caused by administration of chemical substance, Gene No. 2203: −
  Behavior of gene caused by administration of chemical substance, Gene No. 533: −
  Behavior of gene caused by administration of chemical substance, Gene No. 725: −
  Behavior of gene caused by administration of chemical substance, Gene No. 1163: −
  Behavior of gene caused by administration of chemical substance, Gene No. 4973: −
  Behavior of gene caused by administration of chemical substance, Gene No. 4095: −
  Behavior of gene caused by administration of chemical substance, Gene No. 1334: −
  Behavior of gene caused by administration of chemical substance, Gene No. 6620: −
  Behavior of gene caused by administration of chemical substance, Gene No. 6303: −
  Behavior of gene caused by administration of chemical substance, Gene No. 5878: −
  Behavior of gene caused by administration of chemical substance, Gene No. 1131: −
  Behavior of gene caused by administration of chemical substance, Gene No. 1562: −
  Behavior of gene caused by administration of chemical substance, Gene No. 1741: −
  Behavior of gene caused by administration of chemical substance, Gene No. 893: −
  Behavior of gene caused by administration of chemical substance, Gene No. 6026: −
  Behavior of gene caused by administration of chemical substance, Gene No. 154: −
  Behavior of gene caused by administration of chemical substance, Gene No. 1993: −
  Behavior of gene caused by administration of chemical substance, Gene No. 813: −
  Behavior of gene caused by administration of chemical substance, Gene No. 2494: −
  Behavior of gene caused by administration of chemical substance, Gene No. 2546: −
  Behavior of gene caused by administration of chemical substance, Gene No. 3776: −
  Behavior of gene caused by administration of chemical substance, Gene No. 3929: −
  Behavior of gene caused by administration of chemical substance, Gene No. 1119: −
  Behavior of gene caused by administration of chemical substance, Gene No. 6742: −
  Behavior of gene caused by administration of chemical substance, Gene No. 5634: −
  Behavior of gene caused by administration of chemical substance, Gene No. 5726: −
